Experimental findings from patent publication US9701670B2, “Pyrazolyl-ureas as kinase inhibitors” (RESPIVERT LIMITED, priority 2013, dated 2017) are described below.

pIC50: −log10 of the molar value.

Data set [1] relates to Differentiated U937 cells. Nature of the data set: (l) Cell viability: MTT assay. Format: cell-based, human. Conditions: 1 μg/mL. In outline: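 Differentiated U937 cells were exposed to compound at 1 or 10 μg/mL either 4 h in 5% FCS RPMI1640 or 24 h in 10% FCS RPMI1640, then given MTT for 1 h, DMSO-solubilised and read at 550 nm. Percent viability loss versus 0.5% DMSO vehicle; apparent gains appear negative.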

Data set [2] has as its target p38 MAPKα isoform (MAPK14) (Homo sapiens (Human), UniProt Q16539). Put plainly: p38 MAPKα enzyme inhibition (FRET, Z-LYTE), Method 1. In kind it is biochemical. Conditions: Method 1 (Table 4a1).

Sequence of p38 MAPKα isoform (MAPK14) (Q16539 whole entry, canonical isoform): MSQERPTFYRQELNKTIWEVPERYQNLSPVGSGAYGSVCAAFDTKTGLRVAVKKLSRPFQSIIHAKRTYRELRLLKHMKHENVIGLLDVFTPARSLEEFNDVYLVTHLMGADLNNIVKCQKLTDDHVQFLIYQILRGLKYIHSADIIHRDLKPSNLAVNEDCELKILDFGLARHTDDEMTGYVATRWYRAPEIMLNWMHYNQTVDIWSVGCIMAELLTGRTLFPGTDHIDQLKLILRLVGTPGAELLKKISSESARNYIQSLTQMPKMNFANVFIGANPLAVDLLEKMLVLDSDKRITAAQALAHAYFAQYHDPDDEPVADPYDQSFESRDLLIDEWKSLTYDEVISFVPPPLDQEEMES

In general, pIC50 refers to the IC50 on a negative log10 scale, so that one unit is a factor of ten. Read a low pIC50 as a large IC50. As to `COc1ccc(-n2nc(C(C)C)cc2NC(=O)Nc2ccc(Oc3ccnc(Nc4cc(C(=O)NCCN5CCOCC5)cc(C(F)(F)F)c4)n3)c3ccccc23)cc1` [Example 47], in data set [1], the “Cell viability at time point in d-U937 cells 4 h” value was “−ve (−ve and +ve indicate that the value is below and above respectively, the no significant effect threshold, defined as 30% inhibition at 1 μg/mL at the time point indicated.)”; the “Cell viability at time point in d-U937 cells 24 h” value is “−ve (−ve and +ve indicate that the value is below and above respectively, the no significant effect threshold, defined as 30% inhibition at 1 μg/mL at the time point indicated.)”. In addition, the negative-log IC50 (pIC50) in data set [2] was 8.00.

For `COc1ccc(C(=O)NCCN2CCOCC2)cc1Nc1nccc(Oc2ccc(NC(=O)Nc3cc(C(C)C)nn3-c3ccc(C)cc3)c3ccccc23)n1` [Example 30, 3-((4-((4-(3-(3-isopropyl-1-(p-tolyl)-1H-pyrazol-5-yl)ureido)naphthalen-1-yl)oxy)pyrimidin-2-yl)amino)-4-methoxy-N-(2-morpholinoethyl)benzamide], in data set [1], the “Cell viability at time point in d-U937 cells 4 h” value is “−ve (−ve and +ve indicate that the value is below and above respectively, the no significant effect threshold, defined as 30% inhibition at 1 μg/mL at the time point indicated.)”; the “Cell viability at time point in d-U937 cells 24 h” value is “−ve (−ve and +ve indicate that the value is below and above respectively, the no significant effect threshold, defined as 30% inhibition at 1 μg/mL at the time point indicated.)”. This compound had a pIC50 in data set [2] of 8.52.

As to `COc1ccc(C(=O)NCCN2CCOCC2)cc1Nc1nccc(Oc2ccc(NC(=O)Nc3cc(C(C)(C)C)nn3-c3ccc(C)cc3)c3ccccc23)n1` [Example 31, 3-((4-((4-(3-(3-(tert-butyl)-1-(p-tolyl)-1H-pyrazol-5-yl)ureido)naphthalen-1-yl)oxy)pyrimidin-2-yl)amino)-4-methoxy-N-(2-morpholinoethyl)benzamide], in data set [1], the “Cell viability at time point in d-U937 cells 4 h” value was “−ve (−ve and +ve indicate that the value is below and above respectively, the no significant effect threshold, defined as 30% inhibition at 1 μg/mL at the time point indicated.)”; the “Cell viability at time point in d-U937 cells 24 h” value is “−ve (−ve and +ve indicate that the value is below and above respectively, the no significant effect threshold, defined as 30% inhibition at 1 μg/mL at the time point indicated.)”. In data set [2], the negative logarithm of the IC50 (pIC50) is 8.10.

As for `COc1ccc(-n2nc(C(C)(C)C)cc2NC(=O)Nc2ccc(Oc3ccnc(Nc4cc(OC)cc(C(=O)NCCN5CCOCC5)c4)n3)c3ccccc23)cc1` [Example 54, 3-((4-((4-(3-(3-(tert-butyl)-1-(4-methoxyphenyl)-1H-pyrazol-5-yl)ureido)naphthalen-1-yl)oxy)pyrimidin-2-yl)amino)-5-methoxy-N-(2-morpholinoethyl)benzamide], in data set [1], the “Cell viability at time point in d-U937 cells 4 h” value was “−ve (−ve and +ve indicate that the value is below and above respectively, the no significant effect threshold, defined as 30% inhibition at 1 μg/mL at the time point indicated.)”; the “Cell viability at time point in d-U937 cells 24 h” value was “−ve (−ve and +ve indicate that the value is below and above respectively, the no significant effect threshold, defined as 30% inhibition at 1 μg/mL at the time point indicated.)”. This compound also had a negative logarithm of the IC50 (pIC50) in data set [2] of 7.92.

On to `COc1ccc(-n2nc(C(C)(C)C)cc2NC(=O)Nc2ccc(Oc3ccnc(Nc4cc(OC)cc(C(N)=O)c4)n3)c3ccccc23)cc1` [Example 41, 3-((4-((4-(3-(3-(tert-butyl)-1-(4-methoxyphenyl)-1H-pyrazol-5-yl)ureido)naphthalen-1-yl)oxy)pyrimidin-2-yl)amino)-5-methoxybenzamide], for which, in data set [1], the “Cell viability at time point in d-U937 cells 4 h” value is “−ve (−ve and +ve indicate that the value is below and above respectively, the no significant effect threshold, defined as 30% inhibition at 1 μg/mL at the time point indicated.)”; the “Cell viability at time point in d-U937 cells 24 h” value is “−ve (−ve and +ve indicate that the value is below and above respectively, the no significant effect threshold, defined as 30% inhibition at 1 μg/mL at the time point indicated.)”. The compound also had a negative-log IC50 (pIC50) in data set [2] of 7.30.

Regarding `COc1cc(Nc2nccc(Oc3ccc(NC(=O)Nc4cc(C(C)(C)C)nn4-c4ccc(C)cc4)c4ccccc34)n2)cc(C(=O)NCCO)c1` [Example 64, 3-((4-((4-(3-(3-(tert-butyl)-1-(p-tolyl)-1H-pyrazol-5-yl)ureido)naphthalen-1-yl)oxy)pyrimidin-2-yl)amino)-N-(2-hydroxyethyl)-5-methoxybenzamide], in data set [1], the “Cell viability at time point in d-U937 cells 4 h” value is “−ve (−ve and +ve indicate that the value is below and above respectively, the no significant effect threshold, defined as 30% inhibition at 1 μg/mL at the time point indicated.)”; the “Cell viability at time point in d-U937 cells 24 h” value is “−ve (−ve and +ve indicate that the value is below and above respectively, the no significant effect threshold, defined as 30% inhibition at 1 μg/mL at the time point indicated.)”. This compound also had a pIC50 in data set [2] of 8.10.

For the compound `COc1cc(C(=O)NCCO)ccc1Nc1nccc(Oc2ccc(NC(=O)Nc3cc(C(C)C)nn3-c3ccc(C)cc3)c3ccccc23)n1` [Example 39, N-(2-hydroxyethyl)-4-((4-((4-(3-(3-isopropyl-1-(p-tolyl)-1H-pyrazol-5-yl)ureido)naphthalen-1-yl)oxy)pyrimidin-2-yl)amino)-3-methoxybenzamide], in data set [1], the “Cell viability at time point in d-U937 cells 4 h” value is “−ve (−ve and +ve indicate that the value is below and above respectively, the no significant effect threshold, defined as 30% inhibition at 1 μg/mL at the time point indicated.)”; the “Cell viability at time point in d-U937 cells 24 h” value was “−ve (−ve and +ve indicate that the value is below and above respectively, the no significant effect threshold, defined as 30% inhibition at 1 μg/mL at the time point indicated.)”. The compound further showed a pIC50 in data set [2] of 8.15.

For `COc1cc(Nc2nccc(Oc3ccc(NC(=O)Nc4cc(C(C)C)nn4-c4ccc(C)cc4)c4ccccc34)n2)cc(C(=O)N(C)CCN2CCOCC2)c1` [Example 68, 3-((4-((4-(3-(3-isopropyl-1-(p-tolyl)-1H-pyrazol-5-yl)ureido)naphthalen-1-yl)oxy)pyrimidin-2-yl)amino)-5-methoxy-N-methyl-N-(2-morpholinoethyl)benzamide], in data set [1], the “Cell viability at time point in d-U937 cells 4 h” value was “−ve (−ve and +ve indicate that the value is below and above respectively, the no significant effect threshold, defined as 30% inhibition at 1 μg/mL at the time point indicated.)”; the “Cell viability at time point in d-U937 cells 24 h” value is “−ve (−ve and +ve indicate that the value is below and above respectively, the no significant effect threshold, defined as 30% inhibition at 1 μg/mL at the time point indicated.)”. In data set [2], the negative-log IC50 (pIC50) was above 9.00.

Consider `COc1ccc(-n2nc(C(C)C)cc2NC(=O)Nc2ccc(Oc3ccnc(Nc4ccc(C(=O)NCCN5CCOCC5)cc4OC)n3)c3ccccc23)cc1` [Example 38], for which, in data set [1], the “Cell viability at time point in d-U937 cells 4 h” value is “−ve (−ve and +ve indicate that the value is below and above respectively, the no significant effect threshold, defined as 30% inhibition at 1 μg/mL at the time point indicated.)”; the “Cell viability at time point in d-U937 cells 24 h” value was “−ve (−ve and +ve indicate that the value is below and above respectively, the no significant effect threshold, defined as 30% inhibition at 1 μg/mL at the time point indicated.)”. Also, the negative-log IC50 (pIC50) in data set [2] was 7.92.
